Measurements published in ChEMBL document CHEMBL3853288, “Biginkgosides A-I, Unexpected Minor Dimeric Flavonol Diglycosidic Truxinate and Truxillate Esters from Ginkgo biloba Leaves and Their Antineuroinflammatory and Neuroprotective Activities” (J Nat Prod, 2016).
pIC50: −log10 of the molar value.

Assays:
[1] = Antineuroinflammatory activity in mouse BV2 cells assessed as inhibition of LPS-induced NO production incubated for 4 hrs followed by LPS stimulation for 24 hrs by Griess assay; type: functional, cell-based; details: BV-2
SH-SY5Y [2] = test: Neuroprotection against amyloid beta (25 to 35)-induced cell toxicity in human SH-SY5Y cells assessed as cell viability at 1 uM incubated for 2 hrs followed by amyloid beta (25 to 35) treatment for 24 hrs by MTT assay (reference value: 62.4 +/- 3.5%); type: functional; details: read-out: Activity
[3] = Cytotoxicity against LPS-stimulated mouse BV2 cells assessed as cell viability at 20 uM incubated for 4 hrs followed by LPS stimulation for 24 hrs by MTT assay; type: toxicity, BV-2; details: read-out: Activity
SH-SY5Y [4] = test: Neuroprotection against amyloid beta (25 to 35)-induced cell toxicity in human SH-SY5Y cells assessed as cell viability at 10 uM incubated for 2 hrs followed by amyloid beta (25 to 35) treatment for 24 hrs by MTT assay (reference value: 62.4 +/- 3.5%); type: functional; details: read-out: Activity

Row | Structure (SMILES) | pIC50 [1] | also measured
1 | C[C@@H]1O[C@@H](Oc2c(-c3ccc(O)cc3)oc3cc(O)cc(O)c3c2=O)[C@H](O[C@@H]2O[C@H](COC(=O)[C@@H]3[C@H](C(=O)OC[C@H]4O[C@@H](O[C@H]5[C@H](Oc6c(-c7ccc(O)cc7)oc7cc(O)cc(O)c7c6=O)O[C@@H](C)[C@H](O)[C@H]5O)[C@H](O)[C@@H](O)[C@@H]4O)[C@@H](c4ccc(O)cc4)[C@H]3c3ccc(O)cc3)[C@@H](O)[C@H](O)[C@H]2O)[C@H](O)[C@H]1O | < 4.00 | –
2 | C[C@@H]1O[C@@H](Oc2c(-c3ccc(O)cc3)oc3cc(O)cc(O)c3c2=O)[C@H](O[C@@H]2O[C@H](COC(=O)[C@H]3[C@H](C(=O)OC[C@H]4O[C@@H](O[C@H]5[C@H](Oc6c(-c7ccc(O)c(O)c7)oc7cc(O)cc(O)c7c6=O)O[C@@H](C)[C@H](O)[C@H]5O)[C@H](O)[C@@H](O)[C@@H]4O)[C@@H](c4ccc(O)cc4)[C@@H]3c3ccc(O)cc3)[C@@H](O)[C@H](O)[C@H]2O)[C@H](O)[C@H]1O | < 4.00 | viability at 1 µM (SH-SY5Y [2]): 96.7%
3 | C[C@@H]1O[C@@H](Oc2c(-c3ccc(O)c(O)c3)oc3cc(O)cc(O)c3c2=O)[C@H](O[C@@H]2O[C@H](COC(=O)[C@@H]3[C@H](C(=O)OC[C@H]4O[C@@H](O[C@H]5[C@H](Oc6c(-c7ccc(O)c(O)c7)oc7cc(O)cc(O)c7c6=O)O[C@@H](C)[C@H](O)[C@H]5O)[C@H](O)[C@@H](O)[C@@H]4O)[C@@H](c4ccc(O)cc4)[C@H]3c3ccc(O)cc3)[C@@H](O)[C@H](O)[C@H]2O)[C@H](O)[C@H]1O | < 4.00 | –
4 | C[C@@H]1O[C@@H](Oc2c(-c3ccc(O)c(O)c3)oc3cc(O)cc(O)c3c2=O)[C@H](O[C@@H]2O[C@H](COC(=O)[C@H]3[C@H](C(=O)OC[C@H]4O[C@@H](O[C@H]5[C@H](Oc6c(-c7ccc(O)c(O)c7)oc7cc(O)cc(O)c7c6=O)O[C@@H](C)[C@H](O)[C@H]5O)[C@H](O)[C@@H](O)[C@@H]4O)[C@@H](c4ccc(O)cc4)[C@@H]3c3ccc(O)cc3)[C@@H](O)[C@H](O)[C@H]2O)[C@H](O)[C@H]1O | 5.54 | viability at 24 h, 20 µM [3]: 99%
5 | C[C@@H]1O[C@@H](Oc2c(-c3ccc(O)cc3)oc3cc(O)cc(O)c3c2=O)[C@H](O[C@@H]2O[C@H](COC(=O)[C@@H]3[C@H](C(=O)OC[C@H]4O[C@@H](O[C@H]5[C@H](Oc6c(-c7ccc(O)cc7)oc7cc(O)cc(O)c7c6=O)O[C@@H](C)[C@H](O)[C@H]5O)[C@H](O)[C@@H](O)[C@@H]4O)[C@@H](c4ccc(O)cc4)[C@@H]3c3ccc(O)cc3)[C@@H](O)[C@H](O)[C@H]2O)[C@H](O)[C@H]1O | < 4.00 | –
6 | C[C@@H]1O[C@@H](Oc2c(-c3ccc(O)cc3)oc3cc(O)cc(O)c3c2=O)[C@H](O[C@@H]2O[C@H](COC(=O)[C@H]3[C@H](c4ccc(O)cc4)[C@@H](C(=O)OC[C@H]4O[C@@H](O[C@H]5[C@H](Oc6c(-c7ccc(O)cc7)oc7cc(O)cc(O)c7c6=O)O[C@@H](C)[C@H](O)[C@H]5O)[C@H](O)[C@@H](O)[C@@H]4O)[C@@H]3c3ccc(O)cc3)[C@@H](O)[C@H](O)[C@H]2O)[C@H](O)[C@H]1O | 4.76 | viability at 24 h, 20 µM [3]: 97.7%
7 | C[C@@H]1O[C@@H](Oc2c(-c3ccc(O)c(O)c3)oc3cc(O)cc(O)c3c2=O)[C@H](O[C@@H]2O[C@H](COC(=O)[C@H]3[C@H](c4ccc(O)cc4)[C@@H](C(=O)OC[C@H]4O[C@@H](O[C@H]5[C@H](Oc6c(-c7ccc(O)c(O)c7)oc7cc(O)cc(O)c7c6=O)O[C@@H](C)[C@H](O)[C@H]5O)[C@H](O)[C@@H](O)[C@@H]4O)[C@@H]3c3ccc(O)cc3)[C@@H](O)[C@H](O)[C@H]2O)[C@H](O)[C@H]1O | < 4.00 | –
8 | O=C(O[C@@H]1Cc2c(O)cc(O)cc2O[C@@H]1c1cc(O)c(O)c(O)c1)c1cc(O)c(O)c(O)c1 [EPIGALOCATECHIN GALLATE] | – | viability at 10 µM (SH-SY5Y [4]): 99%
9 | C[C@@H]1O[C@@H](Oc2c(-c3ccc(O)cc3)oc3cc(O)cc(O)c3c2=O)[C@H](O[C@@H]2O[C@H](COC(=O)[C@H]3[C@H](C(=O)OC[C@H]4O[C@@H](O[C@H]5[C@H](Oc6c(-c7ccc(O)cc7)oc7cc(O)cc(O)c7c6=O)O[C@@H](C)[C@H](O)[C@H]5O)[C@H](O)[C@@H](O)[C@@H]4O)[C@@H](c4ccc(O)cc4)[C@@H]3c3ccc(O)cc3)[C@@H](O)[C@H](O)[C@H]2O)[C@H](O)[C@H]1O | < 4.00 | –
10 | CNC(=N)NCCC[C@H](N)C(=O)O [TILARGININE] | – | viability at 24 h, 20 µM [3]: 98.5%
11 | C[C@@H]1O[C@@H](Oc2c(-c3ccc(O)cc3)oc3cc(O)cc(O)c3c2=O)[C@H](O[C@@H]2O[C@H](COC(=O)[C@@H]3[C@@H](C(=O)OC[C@H]4O[C@@H](O[C@H]5[C@H](Oc6c(-c7ccc(O)cc7)oc7cc(O)cc(O)c7c6=O)O[C@@H](C)[C@H](O)[C@H]5O)[C@H](O)[C@@H](O)[C@@H]4O)[C@@H](c4ccc(O)cc4)[C@@H]3c3ccc(O)cc3)[C@@H](O)[C@H](O)[C@H]2O)[C@H](O)[C@H]1O | < 4.00 | –
